These results are taken from US7135489B2, “Crystalline form of 4-[5-methyl-3-phenylisoxazol-4-yl] benzenesulfonamide” (G. D. Searle & Co., priority 1996, dated 2006).

Common to all, as to type: physicochemical
A short description of data set [1]: Thermal stability of crystal form. Here is the method:
Melting points were performed either on a Thomas Hoover melting point apparatus or a Mettler FP900 Thermosystem melting point apparatus. Melting ranges were determined by differential scanning calorimetry on a TA Instruments Differential Scanning Calorimeter (Model 2100 controller, Model 912 dual calorimeter). The sample (1-2 mg) was placed in an unsealed aluminum pan and heated at 10° C./minute.

Data set [2] is described as follows: Stability after mechanical grinding (milling).
A short description of data set [3]: Stability of crystalline form compared with the earlier form. To be noted: compared with earlier material Form A.

Take `Cc1onc(-c2ccccc2)c1-c1ccc(S(N)(=O)=O)cc1` [Form A, 4-[5-methyl-3-phenylisoxazol-4-yl]benzenesulfonamide]: in data set [1], the thermal stability result was “thermally unstable”. Besides, the “stability after mechanical grinding (milling)” value in data set [2] is recorded as “unstable”.

`Cc1onc(-c2ccccc2)c1-c1ccc(S(N)(=O)=O)cc1` [Form B, 4-[5-methyl-3-phenylisoxazol-4-yl]benzenesulfonamide]: in data set [3], the “stability relative to Form A” value is “more stable”.
